From patent US20070128217A1 (priority 2003, published 2007)

What was measured:
[1] = test system: antibodies in sera from SARS patients (sera 1a, 1b, 2, 6, 37, 62, London, SARS-yellow, SARS-green); assay type: binding, human; parameters: Binding of serum 6 to linear peptides of protein X1 of SARS-CoV Urbani / Binding of serum 37 to linear peptides of protein X1 of SARS-CoV Urbani / Binding of serum 6 to looped/cyclic peptide (PEPSCAN-ELISA) / Binding of serum 37 to looped/cyclic peptide (PEPSCAN-ELISA) / Binding of serum 37 to looped/cyclic peptides of protein X1 of SARS-CoV Urbani / Binding of serum 6 to linear peptides of protein X2 / Binding of serum 37 to linear peptides of protein X2 / Binding of serum 37 to looped/cyclic peptides of protein X2 of SARS-CoV Urbani / Binding of serum 6 to linear peptides of protein M of SARS-CoV Urbani / Binding of serum 37 to linear peptides of protein M of SARS-CoV Urbani / Binding of serum 6 to looped/cyclic peptides of protein M of SARS-CoV Urbani / Binding of serum 37 to looped/cyclic peptides of protein M of SARS-CoV Urbani / Binding of serum 6 to linear peptides of protein X3 of SARS-CoV Urbani / Binding of serum 37 to linear peptides of protein X3 of SARS-CoV Urbani / Binding of serum 37 to looped/cyclic peptides of protein X3 of SARS-CoV Urbani / Binding of serum 6 to linear peptides of protein X4 of SARS-CoV Urbani / Binding of serum 37 to linear peptides of protein X4 of SARS-CoV Urbani / Binding of serum 37 to looped/cyclic peptides of protein X4 of SARS-CoV Urbani / Binding of serum 6 to linear peptides of protein X5 of SARS-CoV Urbani / Binding of serum 37 to linear peptides of protein X5 of SARS-CoV Urbani / Binding of serum 37 to looped/cyclic peptides of protein X5 of SARS-CoV Urbani / Binding of serum 6 to linear peptides of protein N of SARS-CoV Urbani / Binding of serum 37 to linear peptides of protein N of SARS-CoV Urbani / Binding of serum 6 to linear peptide (PEPSCAN-ELISA) / Binding of serum 1a to looped/cyclic peptides of protein N of SARS-CoV Urbani / Binding of serum 1b to looped/cyclic peptides of protein N of SARS-CoV Urbani / Binding of serum 2 to looped/cyclic peptides of protein N of SARS-CoV Urbani / Binding of serum 6 to looped/cyclic peptides of protein N of SARS-CoV Urbani / Binding of serum 37 to looped/cyclic peptides of protein N of SARS-CoV Urbani / Binding of serum 62 to looped/cyclic peptides of protein N of SARS-CoV Urbani / Binding of serum London to looped/cyclic peptides of protein N of SARS-CoV Urbani / Binding of serum SARS-green to looped/cyclic peptides of protein N of SARS-CoV Urbani: unit not given here
[2] = test system: rabbit serum obtained by immunizing a rabbit with the SARS-CoV strain Frankfurt 1; assay type: binding; parameters: Binding of a rabbit serum to linear peptides / Binding of a rabbit serum to looped peptides / Rabbit serum linear peptides / Rabbit serum looped peptides / Binding of a rabbit serum to linear peptides of protein N of SARS-CoV Urbani (Rabbit serum linear peptides) / Binding of a rabbit serum to looped/cyclic peptides of protein N of SARS-CoV Urbani (Rabbit serum looped peptides): unit not given here
[3] = test system: recombinant human anti-SARS-CoV antibody 03-018; assay type: binding; parameters: Binding of antibody 03-018 to linear peptides of the N protein of SARS-CoV Urbani / Binding of antibody 03-018 to looped/cyclic peptides of the N protein of SARS-CoV Urbani: unit not given here
[4] = test system: control sera (pooled serum of ten healthy LUMC hospital workers; commercial negative donor pooled serum from the Dutch bloodbank); assay type: binding, human; parameters: Binding of Control serum LUMC to linear peptides / Binding of Control serum Blood-bank to linear peptides / Binding of Control serum LUMC to looped peptides / Binding of Control Serum Blood-Bank to Looped peptides / Binding of Control serum LUMC to linear peptides of the protein M of SARS-CoV Urbani / Binding of Control serum Blood-bank to linear peptides of the protein M of SARS-CoV Urbani / Binding of Control serum LUMC to looped peptides of the protein M of SARS-CoV Urbani / Binding of Control Serum Blood-Bank to Looped peptides of the protein M of SARS-CoV Urbani: unit not given here

## LNTPKDHIGTRNPNN
[1]
  Binding of serum 1a to linear peptides of protein N of SARS-CoV Urbani: 0.2
  Binding of serum 1a to looped/cyclic peptides of protein N of SARS-CoV Urbani: 0.4
  Binding of serum 1b to linear peptides of protein N of SARS-CoV Urbani: 0.1
  Binding of serum 1b to looped/cyclic peptides of protein N of SARS-CoV Urbani: 0.3
  Binding of serum 2 to linear peptides of protein N of SARS-CoV Urbani: 0.3
  Binding of serum 2 to looped/cyclic peptides of protein N of SARS-CoV Urbani: 0.4
  Binding of serum 6 to linear peptides of protein N of SARS-CoV Urbani: 0.2
  Binding of serum 6 to looped/cyclic peptides of protein N of SARS-CoV Urbani: 0.3
  Binding of serum 37 to linear peptides of protein N of SARS-CoV Urbani: 0.7
  Binding of serum 37 to looped/cyclic peptides of protein N of SARS-CoV Urbani: 0.6
  Binding of serum 62 to linear peptides of protein N of SARS-CoV Urbani: 0.6
  Binding of serum 62 to looped/cyclic peptides of protein N of SARS-CoV Urbani: 0.5
  Binding of serum London to linear peptides of protein N of SARS-CoV Urbani: 0.5
  Binding of serum London to looped/cyclic peptides of protein N of SARS-CoV Urbani: 0.5
  Binding of serum SARS-green to linear peptides of protein N of SARS-CoV Urbani: 0.2
  Binding of serum SARS-green to looped/cyclic peptides of protein N of SARS-CoV Urbani: 0.4
  Binding of serum SARS-yellow to linear peptides of protein N of SARS-CoV Urbani: 0.6
  Binding of serum SARS-yellow to looped/cyclic peptides of protein N of SARS-CoV Urbani: 0.4
[2]
  Binding of a rabbit serum to linear peptides of protein N of SARS-CoV Urbani (Rabbit serum linear peptides): 0.2
  Binding of a rabbit serum to looped/cyclic peptides of protein N of SARS-CoV Urbani (Rabbit serum looped peptides): 0.0
[3]
  Binding of antibody 03-018 to linear peptides of the N protein of SARS-CoV Urbani: 0.1
  Binding of antibody 03-018 to looped/cyclic peptides of the N protein of SARS-CoV Urbani: 0.2
[4]
  Binding of Control Serum Blood-Bank to Looped peptides: 0.5
  Binding of Control serum Blood-bank to linear peptides: 0.8
  Binding of Control serum LUMC to linear peptides: 0.6
  Binding of Control serum LUMC to looped peptides: 0.6

## SRGNSPARMASGGGE
[1]
  Binding of serum 1a to linear peptide (PEPSCAN-ELISA): 0.3
  Binding of serum 1a to looped/cyclic peptides of protein N of SARS-CoV Urbani: 0.2
  Binding of serum 1b to linear peptide (PEPSCAN-ELISA): 0.2
  Binding of serum 1b to looped/cyclic peptides of protein N of SARS-CoV Urbani: 0.1
  Binding of serum 2 to linear peptide (PEPSCAN-ELISA): 0.1
  Binding of serum 2 to looped/cyclic peptides of protein N of SARS-CoV Urbani: 0.2
  Binding of serum 6 to linear peptide (PEPSCAN-ELISA): 0.2
  Binding of serum 6 to looped/cyclic peptides of protein N of SARS-CoV Urbani: 0.1
  Binding of serum 37 to linear peptide (PEPSCAN-ELISA): 0.6
  Binding of serum 37 to looped/cyclic peptides of protein N of SARS-CoV Urbani: 0.4
  Binding of serum 62 to linear peptide (PEPSCAN-ELISA): 0.6
  Binding of serum 62 to looped/cyclic peptides of protein N of SARS-CoV Urbani: 0.3
  Binding of serum London to linear peptide (PEPSCAN-ELISA): 0.6
  Binding of serum London to looped/cyclic peptides of protein N of SARS-CoV Urbani: 0.3
  Binding of serum SARS-green to linear peptide (PEPSCAN-ELISA): 0.2
  Binding of serum SARS-green to looped/cyclic peptides of protein N of SARS-CoV Urbani: 0.2
  Binding of serum SARS-yellow to linear peptide (PEPSCAN-ELISA): 0.6
  Binding of serum SARS-yellow to looped/cyclic peptides of protein N of SARS-CoV Urbani: 0.1
[2]
  Binding of a rabbit serum to linear peptides of protein N of SARS-CoV Urbani (Rabbit serum linear peptides): 0.1
  Binding of a rabbit serum to looped/cyclic peptides of protein N of SARS-CoV Urbani (Rabbit serum looped peptides): 0.2
[3]
  Binding of antibody 03-018 to linear peptides of the N protein of SARS-CoV Urbani: 0.1
  Binding of antibody 03-018 to looped/cyclic peptides of the N protein of SARS-CoV Urbani: 0.2
[4]
  Binding of Control Serum Blood-Bank to Looped peptides: 0.5
  Binding of Control serum Blood-bank to linear peptides: 0.8
  Binding of Control serum LUMC to linear peptides: 0.8
  Binding of Control serum LUMC to looped peptides: 0.4

## GQQQQGQTVTKKSAA
[1]
  Binding of serum 1a to linear peptide (PEPSCAN-ELISA): 0.3
  Binding of serum 1a to looped/cyclic peptides of protein N of SARS-CoV Urbani: 0.2
  Binding of serum 1b to linear peptide (PEPSCAN-ELISA): 0.1
  Binding of serum 1b to looped/cyclic peptides of protein N of SARS-CoV Urbani: 0.1
  Binding of serum 2 to linear peptide (PEPSCAN-ELISA): 0.3
  Binding of serum 2 to looped/cyclic peptides of protein N of SARS-CoV Urbani: 0.3
  Binding of serum 6 to linear peptide (PEPSCAN-ELISA): 0.3
  Binding of serum 6 to looped/cyclic peptides of protein N of SARS-CoV Urbani: 0.1
  Binding of serum 37 to linear peptide (PEPSCAN-ELISA): 0.8
  Binding of serum 37 to looped/cyclic peptides of protein N of SARS-CoV Urbani: 0.4
  Binding of serum 62 to linear peptide (PEPSCAN-ELISA): 0.8
  Binding of serum 62 to looped/cyclic peptides of protein N of SARS-CoV Urbani: 0.4
  Binding of serum London to linear peptide (PEPSCAN-ELISA): 0.5
  Binding of serum London to looped/cyclic peptides of protein N of SARS-CoV Urbani: 0.3
  Binding of serum SARS-green to linear peptide (PEPSCAN-ELISA): 0.1
  Binding of serum SARS-green to looped/cyclic peptides of protein N of SARS-CoV Urbani: 0.1
  Binding of serum SARS-yellow to linear peptide (PEPSCAN-ELISA): 0.5
  Binding of serum SARS-yellow to looped/cyclic peptides of protein N of SARS-CoV Urbani: 0.1
[2]
  Binding of a rabbit serum to linear peptides of protein N of SARS-CoV Urbani (Rabbit serum linear peptides): 0.2
  Binding of a rabbit serum to looped/cyclic peptides of protein N of SARS-CoV Urbani (Rabbit serum looped peptides): 0.1
[3]
  Binding of antibody 03-018 to linear peptides of the N protein of SARS-CoV Urbani: 0.1
  Binding of antibody 03-018 to looped/cyclic peptides of the N protein of SARS-CoV Urbani: 0.2
[4]
  Binding of Control Serum Blood-Bank to Looped peptides: 0.5
  Binding of Control serum Blood-bank to linear peptides: 0.9
  Binding of Control serum LUMC to linear peptides: 0.9
  Binding of Control serum LUMC to looped peptides: 0.5

## YYRRATRRVRGGDGK
[1]
  Binding of serum 1a to linear peptides of protein N of SARS-CoV Urbani: 0.3
  Binding of serum 1a to looped/cyclic peptides of protein N of SARS-CoV Urbani: 0.2
  Binding of serum 1b to linear peptides of protein N of SARS-CoV Urbani: 0.1
  Binding of serum 1b to looped/cyclic peptides of protein N of SARS-CoV Urbani: 0.1
  Binding of serum 2 to linear peptides of protein N of SARS-CoV Urbani: 0.3
  Binding of serum 2 to looped/cyclic peptides of protein N of SARS-CoV Urbani: 0.2
  Binding of serum 6 to linear peptides of protein N of SARS-CoV Urbani: 0.3
  Binding of serum 6 to looped/cyclic peptides of protein N of SARS-CoV Urbani: 0.1
  Binding of serum 37 to linear peptides of protein N of SARS-CoV Urbani: 0.7
  Binding of serum 37 to looped/cyclic peptides of protein N of SARS-CoV Urbani: 0.4
  Binding of serum 62 to linear peptides of protein N of SARS-CoV Urbani: 0.6
  Binding of serum 62 to looped/cyclic peptides of protein N of SARS-CoV Urbani: 0.2
  Binding of serum London to linear peptides of protein N of SARS-CoV Urbani: 0.5
  Binding of serum London to looped/cyclic peptides of protein N of SARS-CoV Urbani: 0.2
  Binding of serum SARS-green to linear peptides of protein N of SARS-CoV Urbani: 0.3
  Binding of serum SARS-green to looped/cyclic peptides of protein N of SARS-CoV Urbani: 0.0
  Binding of serum SARS-yellow to linear peptides of protein N of SARS-CoV Urbani: 0.5
  Binding of serum SARS-yellow to looped/cyclic peptides of protein N of SARS-CoV Urbani: 0.1
[2]
  Binding of a rabbit serum to linear peptides of protein N of SARS-CoV Urbani (Rabbit serum linear peptides): 0.2
  Binding of a rabbit serum to looped/cyclic peptides of protein N of SARS-CoV Urbani (Rabbit serum looped peptides): 0.0
[3]
  Binding of antibody 03-018 to linear peptides of the N protein of SARS-CoV Urbani: 0.1
  Binding of antibody 03-018 to looped/cyclic peptides of the N protein of SARS-CoV Urbani: 0.2
[4]
  Binding of Control Serum Blood-Bank to Looped peptides: 0.3
  Binding of Control serum Blood-bank to linear peptides: 0.6
  Binding of Control serum LUMC to linear peptides: 0.6
  Binding of Control serum LUMC to looped peptides: 0.2
